# According to patent US10226413B2, “Solution solubilization composition of insoluble material and method for solubilizing insoluble material using same” (Damy Chemical Co., Ltd., priority 2013, dated 2019):
# Procedure: The turbidity of each lotion was measured using a spectrophotometer at 620 nm. A high turbidity of a liquid indicates cloudiness of the liquid and a low turbidity of a liquid indicates high transparency of the liquid. The turbidity (optical density) of the lotion was measured in the range of 0.01-1.0.
# The amount of light passing through each solution was measured. The transmittance (T, %) of the solution for light was calculated as follows. First, the measured absorbance was substituted into -log t=A (absorbance, O.D). Since t is always not greater than 1, the transmittance (T) was calculated and expressed in percentage by T (%)=t×100. The transmittance is between 1 and 100%. The higher the transmittance, the higher the transparency. The transmittance of purified water was defined as 100%.
row,Compound,solubilization in water by the composition (turbidity and transmittance)
1,C[C@@H]1O[C@@H](OC[C@H]2O[C@@H](Oc3c(-c4ccc(O)c(O)c4)oc4cc(O)cc(O)c4c3=O)[C@H](O)[C@@H](O)[C@@H]2O)[C@H](O)[C@H](O)[C@H]1O [rutin],can solubilize
2,COC1=C(OC)C(=O)C(C/C=C(\C)CC/C=C(\C)CC/C=C(\C)CC/C=C(\C)CC/C=C(\C)CC/C=C(\C)CC/C=C(\C)CC/C=C(\C)CC/C=C(\C)CCC=C(C)C)=C(C)C1=O [ubiquinone],can solubilize
